The record followed here is patent publication EP2878292A2, “Application of cosmetic compositions for the inactivation and/or elimination of skin mites” (Henkel AG & Co. KGaA, priority 2013, dated 2015).

For this data set, the system named is Haustaubmilben. Format: in vivo. On the procedure: Die zu testende Substanz wurde mit Wasser auf die vorgesehene Einsatzkonzentration verdünnt (s.u.). Haustaubmilben, die aufgrund ihrer großen Ähnlichkeit als Vergleich zu Haarbalgmilben (Demodex) verwendet werden, wurden aus ihrem Futter isoliert und auf 1,5 cm x 1,5 cm große Filterpapierstücke übertragen. Etwa 100 Milben je Ansatz wurden mit 50 µl der zu testenden Substanzen in den vorhergesehenen Verdünnungen betropft. Die überschüssige Flüssigkeit wurde nach 10 Sekunden abgesaugt. Die noch feuchten Filterpapiere mit den Milben wurden nach der Behandlung in eine Petrischale gebracht, die mit einem Deckel und einer Umrandung mit Paraffin verschlossen wurden, um sicherzustellen, dass evtl. überlebende Milben nicht entweichen können. Die Milben können nach Beginn einer Behandlung - gleichgültig mit welchem Mittel - unbeweglich werden, sich jedoch später wieder erholen und ihre Beweglichkeit zumindest für kurze Zeit wiedererlangen. Andererseits ist es auch möglich, dass Milben in den ersten Stunden nach einer Behandlung noch vital erscheinen, jedoch bereits so stark geschädigt sind, dass sie innerhalb eines Tages bis zu 2-3 Tagen sterben. Daher wurden die Petrischalen für einen Tag aufbewahrt, und die Milben dann erst auf ihre Vitalität bewertet.
Die Anzahl der toten und lebenden Milben wurde bestimmt und in % der Sterberate umgerechnet.
Die Versuche wurden zweifach durchgeführt. […]

`CCCCCCCCC(O)CO` (centres unmarked) [Symclariol, 1,2-Decanediol]: the “Inaktivierung bzw. Eliminierung von Milben” value (conclusion in words drawn from the test at 2%) is “wirksam”. In addition, the “Sterberate (Mittelwert)” value (house dust mite, in vivo, topical, 24 h) is 10,9%.
